In the experiment the target is HPK1 (Homo sapiens (Human), UniProt Q92918). The experiment in a line: HPK1 Kinase Binding Assay. How it is done:
A stock solution of 1 mM test compound was prepared in DMSO. The compound plate was prepared by 3-fold and 11-point serial dilutions. 0.1 μL of the compound in DMSO was transferred from the compound plate to the white 384 well polystyrene plates. The assay buffer contained 50 mM HEPES, pH 7.5, 0.01% Tween-20, 5 mM MgCl2, 0.01% BSA, and 5 mM DTT. 5 μl of 4 nM active HPK1 (SignalChem M23-11G) prepared in the buffer was added to the plate. The enzyme concentration given was based on the given stock concentration reported by the vender. 5 μl of 18 nM tracer 222 (ThermoFisher PV6121) and 4 nM LanthaScreen Eu-Anti GST antibody (ThermoFisher PV5595) were added. After one hour incubation at 25° C., the plates were read on a PHERAstar FS plate reader (BMG Labtech). Ki values were determined.
Sequence of HPK1 (Q92918 1-346): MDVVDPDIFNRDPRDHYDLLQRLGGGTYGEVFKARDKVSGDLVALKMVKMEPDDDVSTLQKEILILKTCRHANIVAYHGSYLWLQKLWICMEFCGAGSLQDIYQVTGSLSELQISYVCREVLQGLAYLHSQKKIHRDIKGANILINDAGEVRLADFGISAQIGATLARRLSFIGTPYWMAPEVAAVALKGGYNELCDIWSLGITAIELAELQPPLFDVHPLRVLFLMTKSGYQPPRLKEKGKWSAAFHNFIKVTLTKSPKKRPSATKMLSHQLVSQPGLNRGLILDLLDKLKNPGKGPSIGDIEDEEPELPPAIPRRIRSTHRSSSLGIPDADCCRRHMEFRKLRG
As to `Cc1cccc(F)c1-c1cc2c(NC(=O)c3ccc(N4CCN(C)CC4)cc3NCc3ccnn3C)n[nH]c2cn1` [Example 159, N-(5-(2-Fluoro-6-methylphenyl)-1H-pyrazolo[3,4-c]pyridin-3-yl)-2-((1-methyl-1H-pyrazol-5-yl)methylamino)-4-(4-methylpiperazin-1-yl)benzamide], the Ki was not above 100 nM.

For the molecule `CCNCc1cc(C)c(-c2cc3c(-c4cnn(C)c4)n[nH]c3cn2)c(F)c1` [Example 176, N-(3-Fluoro-5-methyl-4-(3-(1-methyl-1H-pyrazol-4-yl)-1H-pyrazolo[3,4-c]pyridin-5-yl)benzyl)ethanamine], the Ki was not above 100 nM.

Regarding `Cc1cccc(F)c1-c1cc2c(NC(=O)c3ccc(N4CCN(C)CC4)cc3NC3CCC(C#N)C3)n[nH]c2cn1` (stereo not shown) [Example 160, 2-(3-Cyanocyclopentylamino)-N-(5-(2-fluoro-6-methylphenyl)-1H-pyrazolo[3,4-c]pyridin-3-yl)-4-(4-methylpiperazin-1-yl)benzamide], the inhibition constant (Ki) was not above 100 nM.

On to `Cc1cc(NC(=O)CN(C)C)cc(Cl)c1-c1cc2c(-c3cnn(C)c3)n[nH]c2cn1` [Example 78, N-(3-Chloro-5-methyl-4-(3-(1-methyl-1H-pyrazol-4-yl)-1H-pyrazolo[3,4-c]pyridin-5-yl)phenyl)-2-(dimethylamino)acetamide], for which the inhibition constant Ki is not above 100 nM.

For `Cc1cc(CNC2CC(O)C2)cc(F)c1-c1cc2c(-c3cnn(C)c3)n[nH]c2cn1` (stereo not shown) [Example 181, 3-(3-Fluoro-5-methyl-4-(3-(1-methyl-1H-pyrazol-4-yl)-1H-pyrazolo[3,4-c]pyridin-5-yl)benzylamino)cyclobutanol], the Ki is not above 100 nM.

Consider `Cc1cc(CNCCO)cc(F)c1-c1cc2c(-c3cnn(C)c3)n[nH]c2cn1` [Example 180, 2-(3-Fluoro-5-methyl-4-(3-(1-methyl-1H-pyrazol-4-yl)-1H-pyrazolo[3,4-c]pyridin-5-yl)benzylamino)ethanol], for which the inhibition constant Ki was not above 100 nM.

`Cn1cc(-c2n[nH]c3cnc(-c4c(F)cc(NC(=O)CC5CCCC5)cc4F)cc23)cn1` [Example 66, 2-Cyclopentyl-N-(3,5-difluoro-4-(3-(1-methyl-1H-pyrazol-4-yl)-1H-pyrazolo[3,4-c]pyridin-5-yl)phenyl)acetamide] yielded a Ki not above 100 nM.

Molecule `COc1cccc(F)c1-c1cc2c(NC(=O)c3ccc(N4CCN(C(C)C)CC4)cc3)n[nH]c2cn1` [Example 30, N-(5-(2-Fluoro-6-methoxyphenyl)-1H-pyrazolo[3,4-c]pyridin-3-yl)-4-(4-isopropylpiperazin-1-yl)benzamide] came in with a Ki not above 100 nM.

For `CNCCc1ccc(F)c(-c2cc3c(-c4cnn(C)c4)n[nH]c3cn2)c1F` [Example 97, 2-(2,4-Difluoro-3-(3-(1-methyl-1H-pyrazol-4-yl)-1H-pyrazolo[3,4-c]pyridin-5-yl)phenyl)-N-methylethanamine], the Ki was not above 100 nM.

With `Cc1c(CN2CC(C)(C)C2)ccc(F)c1-c1cc2c(-c3cnn(C)c3)n[nH]c2cn1` [Example 221, 5-(3-((3,3-Dimethylazetidin-1-yl)methyl)-6-fluoro-2-methylphenyl)-3-(1-methyl-1H-pyrazol-4-yl)-1H-pyrazolo[3,4-c]pyridine], the Ki was not above 100 nM.

In turn, `CN1CCN(c2ccc(-c3n[nH]c4cnc(-c5c(F)cc(F)cc5F)cc34)cc2)CC1` [Example 46, 3-(4-(4-Methylpiperazin-1-yl)phenyl)-5-(2,4,6-trifluorophenyl)-1H-pyrazolo[3,4-c]pyridine] gave an inhibition constant Ki not above 100 nM.

The molecule `CCNCc1cccc(-c2cc3c(-c4cnn(C)c4)n[nH]c3cn2)c1C(F)(F)F` [Example 237, N-(3-(3-(1-Methyl-1H-pyrazol-4-yl)-1H-pyrazolo[3,4-c]pyridin-5-yl)-2-(trifluoromethyl)benzyl)ethanamine] had a Ki not above 100 nM.

Molecule `COc1cccc(F)c1-c1cc2c(N3CCc4ccc(C#N)cc4C3)n[nH]c2cn1` [Example 38, 2-(5-(2-Fluoro-6-methoxyphenyl)-1H-pyrazolo[3,4-c]pyridin-3-yl)-1,2,3,4-tetrahydroisoquinoline-7-carbonitrile] gave an inhibitory constant (Ki) not above 100 nM.

Take `CO[C@H]1C[C@H](NCc2ccc(F)c(-c3cc4c(-c5cnn(C)c5)n[nH]c4cn3)c2C)C1` [Example 222, trans-N-(4-Fluoro-2-methyl-3-(3-(1-methyl-1H-pyrazol-4-yl)-1H-pyrazolo[3,4-c]pyridin-5-yl)benzyl)-3-methoxycyclobutanamine]: the inhibition constant Ki was not above 100 nM.

Consider `CNCc1ccc(F)c(-c2cc3c(-c4cnn(C)c4)n[nH]c3cn2)c1C(F)(F)F` [Example 225, 1-(4-Fluoro-3-(3-(1-methyl-1H-pyrazol-4-yl)-1H-pyrazolo[3,4-c]pyridin-5-yl)-2-(trifluoromethyl)phenyl)-N-methylmethanamine], for which the inhibition constant Ki is not above 100 nM.

Molecule `CNCc1cc(F)c(-c2ncc3[nH]nc(-c4cnn(C)c4)c3c2OC)c(F)c1` [Example 215, 1-(3,5-Difluoro-4-(4-methoxy-3-(1-methyl-1H-pyrazol-4-yl)-1H-pyrazolo[3,4-c]pyridin-5-yl)phenyl)-N-methylmethanamine] registered an inhibitory constant (Ki) not above 100 nM.

For `Cn1cc(-c2n[nH]c3cnc(-c4c(F)ccc(NC(=O)C5CCC5)c4F)cc23)cn1` [Example 59, N-(2,4-Difluoro-3-(3-(1-methyl-1H-pyrazol-4-yl)-1H-pyrazolo[3,4-c]pyridin-5-yl)phenyl)cyclobutanecarboxamide], the Ki was not above 100 nM.

`COc1cccc(F)c1-c1cc2c(NC(=O)c3ccccc3)n[nH]c2cn1` [Example 1, N-(5-(2-Fluoro-6-methoxyphenyl)-1H-pyrazolo[3,4-c]pyridin-3-yl)benzamide]: the Ki is not above 100 nM.

In the case of `CN1CCN(c2ccc(-c3n[nH]c4cnc(-c5c(F)cc(O)cc5F)cc34)cc2)CC1` [Example 48, 3,5-Difluoro-4-(3-(4-(4-methylpiperazin-1-yl)phenyl)-1H-pyrazolo[3,4-c]pyridin-5-yl)phenol], the inhibition constant (Ki) is not above 100 nM.

Regarding `CC(C)NC1CC(c2cc(F)c(-c3cc4c(-c5cnn(C)c5)n[nH]c4cn3)c(F)c2)C1` (stereo not shown) [Example 95, 3-(3,5-Difluoro-4-(3-(1-methyl-1H-pyrazol-4-yl)-1H-pyrazolo[3,4-c]pyridin-5-yl)phenyl)-N-isopropylcyclobutanamine], the Ki is not above 100 nM.

With `CN1CCN(c2ccc(-c3n[nH]c4cnc(-c5c(F)cc6c(c5F)C(O)CC6)cc34)cn2)CC1` (stereo not shown) [Example 213, 5,7-Difluoro-6-(3-(6-(4-methylpiperazin-1-yl)pyridin-3-yl)-1H-pyrazolo[3,4-c]pyridin-5-yl)-2,3-dihydro-1H-inden-1-ol], the Ki was not above 100 nM.

The molecule `COc1cccc(F)c1-c1cc2c(-c3cc(C)no3)n[nH]c2cn1` [Example 35, 5-(5-(2-Fluoro-6-methoxyphenyl)-1H-pyrazolo[3,4-c]pyridin-3-yl)-3-methylisoxazole] registered a Ki not above 100 nM.

Turning to `CC(C)NCc1cccc(-c2cc3c(-c4cnn(C)c4)n[nH]c3cn2)c1C(F)(F)F` [Example 91, N-(3-(3-(1-Methyl-1H-pyrazol-4-yl)-1H-pyrazolo[3,4-c]pyridin-5-yl)-2-(trifluoromethyl)benzyl)propan-2-amine], the Ki was not above 100 nM.

On to `Cc1cccc(F)c1-c1cc2c(-c3ccc(N4CCN(C)CC4)cc3)n[nH]c2cn1` [Example 49, 5-(2-Fluoro-6-methylphenyl)-3-(4-(4-methylpiperazin-1-yl)phenyl)-1H-pyrazolo[3,4-c]pyridine], for which the Ki was not above 100 nM.

Regarding `Cn1cc(-c2n[nH]c3cnc(-c4c(F)cc(NC(=O)CN5CC6(CCOCC6)C5)cc4F)cc23)cn1` [Example 69, N-(3,5-Difluoro-4-(3-(1-methyl-1H-pyrazol-4-yl)-1H-pyrazolo[3,4-c]pyridin-5-yl)phenyl)-2-(7-oxa-2-azaspiro[3.5]nonan-2-yl)acetamide], the Ki was not above 100 nM.

As for `CNCc1cccc(-c2cc3c(-c4cnn(C)c4)n[nH]c3cn2)c1C` [Example 86, N-Methyl-1-(2-methyl-3-(3-(1-methyl-1H-pyrazol-4-yl)-1H-pyrazolo[3,4-c]pyridin-5-yl)phenyl)methanamine], the Ki is not above 100 nM.

`CNCc1cc(F)c(-c2cc3c(-c4cnn(C)c4)n[nH]c3cn2)c(C(F)F)c1` [Example 235, 1-(3-(Difluoromethyl)-5-fluoro-4-(3-(1-methyl-1H-pyrazol-4-yl)-1H-pyrazolo[3,4-c]pyridin-5-yl)phenyl)-N-methylmethanamine]: the inhibition constant Ki was not above 100 nM.

Consider `COc1cccc(F)c1-c1cc2c(NC(=O)c3cccc(Br)c3)n[nH]c2cn1` [Example 4, 3-Bromo-N-(5-(2-fluoro-6-methoxyphenyl)-1H-pyrazolo[3,4-c]pyridin-3-yl)benzamide], for which the inhibition constant (Ki) was not above 100 nM.

With `COc1cc(N2CCN(C)CC2)ccc1C(=O)Nc1n[nH]c2cnc(-c3c(F)cc(CNC(C)C)cc3F)cc12` [Example 149, N-(5-(2,6-Difluoro-4-((isopropylamino)methyl)phenyl)-1H-pyrazolo[3,4-c]pyridin-3-yl)-2-methoxy-4-(4-methylpiperazin-1-yl)benzamide], the inhibitory constant (Ki) was not above 100 nM.

On to `CN1CCN(c2ccc(C(=O)Nc3n[nH]c4cnc(-c5c(F)cc(NC(=O)CN6CCCC6)cc5F)cc34)cc2)CC1` [Example 156, N-(5-(2,6-Difluoro-4-(2-(pyrrolidin-1-yl)acetamido)phenyl)-1H-pyrazolo[3,4-c]pyridin-3-yl)-4-(4-methylpiperazin-1-yl)benzamide], for which the Ki is not above 100 nM.

Molecule `CNCc1cccc(-c2cc3c(-c4cnn(C)c4)n[nH]c3cn2)c1C(F)(F)F` [Example 88, N-Methyl-1-(3-(3-(1-methyl-1H-pyrazol-4-yl)-1H-pyrazolo[3,4-c]pyridin-5-yl)-2-(trifluoromethyl)phenyl)methanamine] returned a Ki not above 100 nM.

A word on the Ki: it is the dissociation constant of the complex between target and ligand, obtained from inhibition or displacement. Low values mean a stronger hold on the target, high ones a looser hold on the target.

These data come from patent publication US10435405B2, “Pyrazolopyridine compounds and uses thereof” (Incyte Corporation, priority 2016, dated 2019).
